Data published in US9079866B2, “Flap modulators” (JANSSEN PHARMACEUTICA NV, priority 2013, dated 2015).
Where a name gives a salt, the structure may show the parent alone. Read-outs that look alike come from different tables or passages of the source.

Assays:
[1] = biological target: human FLAP (Homo sapiens (Human), UniProt P20292); assay: FLAP binding assay (HTRF format)
In short: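 HTRF ratio read-out; two independent plates, samples in duplicate on each, values averaged across plates.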

[2] = tested on: leukotriene pathway in human whole blood (LTB4 levels); assay: Human whole blood assay (A23187-stimulated LTB4); format: cell-based; details: Homo sapiens, read-out: LTB4 IC50 1:1
Procedure: The ability of the compounds of the present invention to treat a FLAP-mediated disease and/or disorder, or associated symptoms or complications thereof, was determined using the following procedures. Binding assay data represent the average value obtained from two different assay plates, with samples run in duplicate on each plate. Human whole blood assay data represent a single replicate on an assay plate using whole blood from at least one healthy donor.
An in vitro cellular assay was performed using human whole blood collected in heparin-containing tubes, which was used to test the ability of compounds to modulate the leukotriene pathway in human whole blood. The blood was diluted 1:1 in RPMI medium, pre-incubated for 15 min at 37° Celsius with test compounds at various concentrations, and then stimulated with calcium ionophore, A23187 (7 μg/mL), for 30 min at 37° Celsius. The samples were then centrifuged and plasma was removed. The plasma was diluted in assay buffer and LTB4 levels were measured using a commercial kit (Enzo Life Sciences). The concentration of each compound that was required for half-maximal inhibition (modulation) of recombinant enzyme activity (IC50) was calculated by a 4-parameter equation using the program GraphPad Prism (GraphPad software).

[3] = human whole blood diluted 1:1, A23187-stimulated
[4] = human FLAP wild type, HTRF format, average of two plates, duplicates
[5] = human whole blood diluted 1:1 in RPMI, A23187-stimulated LTB4

human FLAP, sequence (P20292 whole entry): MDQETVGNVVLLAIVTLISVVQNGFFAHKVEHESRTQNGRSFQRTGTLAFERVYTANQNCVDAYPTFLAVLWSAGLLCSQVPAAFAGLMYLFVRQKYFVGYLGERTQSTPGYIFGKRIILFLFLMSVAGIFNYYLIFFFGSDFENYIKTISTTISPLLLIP

SMILES | IC50 [2, 3] [nM] | IC50 [2, 5] [nM] | other results
CC(C)(C)C(=O)Nc1ncccc1-c1ccc(-c2cnc3[nH]ccc3c2)c(F)c1 [Example 802, N-{3-[3-Fluoro-4-(1H-pyrrolo[2,3-b]pyridin-5-yl)phenyl]pyridin-2-yl}-2,2-dimethylpropanamide] | 0.994 |  | Ki ([1]; wild type FLAP, HTRF format): > 10000 nM
CNS(=O)(=O)c1ccccc1-c1ccc(-c2cnc(N)c(C)n2)c(F)c1 [Example 449, 4′-(5-Amino-6-methylpyrazin-2-yl)-3′-fluoro-N-methylbiphenyl-2-sulfonamide] | 79 |  | Ki ([1]; wild type FLAP, HTRF format): 22 nM
Nc1cnc(-c2ccc(-c3ccccc3S(=O)(=O)NCCc3ccccc3)cc2F)cn1 [Example 17, 4′-(5-Aminopyrazin-2-yl)-3′-fluoro-N-(2-phenylethyl)biphenyl-2-sulfonamide] |  | 25 | Ki [1, 4]: 2 nM
Nc1ncc(-c2ccc(-c3ccccc3S(=O)(=O)N3CCC[C@@H]3CO)cc2F)cn1 [Example 276, [(2R)-1-{[4′-(2-Aminopyrimidin-5-yl)-3′-fluorobiphenyl-2-yl]sulfonyl}pyrrolidin-2-yl]methanol trifluoroacetic acid salt] |  | 325 | Ki [1, 4]: 23 nM
Nc1cnc(-c2ccc(-c3ccccc3S(=O)(=O)N[C@@H]3c4ccccc4C[C@H]3O)cc2F)cn1 [Example 159, 4′-(5-Aminopyrazin-2-yl)-3′-fluoro-N-((1R,2R)-2-hydroxy-2,3-dihydro-1H-inden-1-yl)-[1′,1′-biphenyl]-2-sulfonamide] |  | 1 | Ki [1, 4]: 1 nM
C[C@H](NS(=O)(=O)c1ccccc1-c1ccc(-c2cnc(N)nc2)c(F)c1)C(F)(F)F [Example 297, 4′-(2-Aminopyrimidin-5-yl)-3′-fluoro-N-[(1S)-2,2,2-trifluoro-1-methylethyl]biphenyl-2-sulfonamide trifluoroacetic acid salt] |  | 45 | Ki ([1]; read-out: FLAP Binding wild type HTRF Ki): 5 nM
Nc1ncc(-c2ccc(-c3ccccc3Sc3ccnc(N)n3)cc2F)cn1 [Example 335, 4-{[4′-(2-Aminopyrimidin-5-yl)-3′-fluorobiphenyl-2-yl]sulfanyl}pyrimidin-2-amine formate salt] |  | 37 | Ki [1, 4]: 2 nM
CN1CCN([C@@H]2CN(S(=O)(=O)c3ccccc3-c3ccc(-c4cnc(N)cn4)c(F)c3)C[C@H]2O)CC1 (racemic) [Example 188, Racemic-1-{[4′-(5-Aminopyrazin-2-yl)-3′-fluorobiphenyl-2-yl]sulfonyl}-4-(4-methylpiperazin-1-yl)-pyrrolidin-3-ol trifluoroacetic acid salt] |  | 1180 | 
Nc1cnc(-c2ccc(-c3ccccc3S(=O)(=O)N[C@H]3c4ccccc4C[C@H]3O)cc2F)cn1 [Example 160, 4′-(5-Aminopyrazin-2-yl)-3′-fluoro-N-((1S,2R)-2-hydroxy-2,3-dihydro-1H-inden-1-yl)-[1,1′-biphenyl]-2-sulfonamide] |  | 5 | 
N#Cc1nc(-c2ccc(-c3ccccc3S(=O)(=O)NCCO)cc2F)cnc1N [Example 413, 4′-(5-Amino-6-cyanopyrazin-2-yl)-3′-fluoro-N-(2-hydroxyethyl)biphenyl-2-sulfonamide] | 448 |  | 
CC(CO)NS(=O)(=O)c1ccccc1-c1ccc(-c2cnc(N)cn2)c(F)c1 (stereo in doubt) [Example 32, 4′-(5-Aminopyrazin-2-yl)-3′-fluoro-N-[(1S)-2-hydroxy-1-methylethyl]biphenyl-2-sulfonamide] |  | 30 | 
C[C@H](CO)NS(=O)(=O)c1ccccc1-c1ccc(-c2cnc3c(c2)OCCN3)c(F)c1 [Example 390, 4′-(3,4-Dihydro-2H-pyrido[3,2-b][1,4]oxazin-7-yl)-3′-fluoro-N-[(1R)-2-hydroxy-1-methylethyl]biphenyl-2-sulfonamide] |  | 10 | 
CCC(C)S(=O)(=O)c1ncccc1-c1ccc(-c2cnc(N)nc2)c(F)c1 (racemic) [Example 813, racemic 5-(4-(2-(sec-Butylsulfonyl)pyridin-3-yl)-2-fluorophenyl)pyrimidin-2-amine formate] | 75.1 |  | 
CC(C)(C)OC(=O)N1CC(O)(CNS(=O)(=O)c2ccccc2-c2ccc(-c3ccc(N)nc3)c(F)c2)C1 [Example 357, tert-Butyl 3-((4′-(6-aminopyridin-3-yl)-3′-fluoro-[1,1′-biphenyl]-2-ylsulfonamido)methyl)-3-hydroxyazetidine-1-carboxylate] |  | 1130 | 
N#Cc1nc(-c2ccc(-c3ccccc3S(=O)(=O)N3CCNC(=O)C3)cc2F)cnc1N [Example 414, 3-Amino-6-{3-fluoro-2′-[(3-oxopiperazin-1-yl)sulfonyl]biphenyl-4-yl}pyrazine-2-carbonitrile] | 120 |  | 
Nc1cnc(-c2ccc(-c3ccccc3S(=O)(=O)N3CCN(c4cnccn4)CC3)cc2F)cn1 [Example 176, 5-{3-Fluoro-2′-[(4-pyrazin-2-ylpiperazin-1-yl)sulfonyl]biphenyl-4-yl}pyrazin-2-amine] |  | 10 | 
Nc1cnc(-c2ccc(-c3ccccc3S(N)(=O)=O)c(F)c2F)cn1 [Example 464, 4′-(5-Aminopyrazin-2-yl)-2′,3′-difluorobiphenyl-2-sulfonamide] | > 10000 |  | 
CS(=O)(=O)c1cc(F)ccc1-c1ccc(-c2cnc3[nH]ccc3n2)c(F)c1 [Example 489, 2-[3,4′-Difluoro-2′-(methylsulfonyl)biphenyl-4-yl]-5H-pyrrolo[2,3-b]pyrazine] | 307 |  | 
N#CC1CN(S(=O)(=O)c2ccccc2-c2ccc(-c3cnc(N)nc3)c(F)c2)C1 [Example 314, 1-((4′-(2-Aminopyrimidin-5-yl)-3′-fluoro-[1,1′-biphenyl]-2-yl)sulfonyl)azetidine-3-carbonitrile] |  | 178 | 
Nc1ncc(-c2ccc(-c3ccccc3S(=O)(=O)N3CCCC3)cc2F)cn1 [Example 298, 5-[3-Fluoro-2′-(pyrrolidin-1-ylsulfonyl)biphenyl-4-yl]pyrimidin-2-amine trifluoroacetic acid salt] |  | 1170 | 
CC(C)(C)NS(=O)(=O)c1ccccc1-c1ccc(-c2ccc3[nH]ccc3c2)c(F)c1 [Example 421, N-tert-Butyl-3′-fluoro-4′-(1H-indol-5-yl)biphenyl-2-sulfonamide] | > 10000 |  | 
NS(=O)(=O)c1ccccc1-c1ccc(-c2cnc3[nH]ccc3c2)c(F)c1 [Example 368, 3′-Fluoro-4′-(1H-pyrrolo[2,3-b]pyridin-5-yl)biphenyl-2-sulfonamide] |  | 178 | 

Second part, led by results:

IC50 [2, 3] [nM] | IC50 [2, 5] [nM] | SMILES | other results
4310 |  | CC(C)(C)OC(=O)N1CCC(COc2ncccc2-c2ccc(-c3cnc(N)cn3)c(F)c2)C1 (centres unmarked) [Example 406, tert-Butyl 3-[({3-[4-(5-aminopyrazin-2-yl)-3-fluorophenyl]pyridin-2-yl}oxy)methyl]pyrrolidine-1-carboxylate] | Ki ([1]; wild type FLAP, HTRF format): 135 nM
 | 10 | Nc1cnc(-c2ccc(-c3ccccc3S(=O)(=O)N3CCCC(O)C3)cc2F)cn1 (racemic) [Example 70, racemic 1-{[4′-(5-Aminopyrazin-2-yl)-3′-fluorobiphenyl-2-yl]sulfonyl}piperidin-3-ol] | 
1470 |  | Nc1cnc(-c2ccc(-c3ccccc3O[C@H]3CCCNC3)cc2F)cn1 [Example 634, 5-{3-Fluoro-2′-[(3S)-piperidin-3-yloxy]biphenyl-4-yl}pyrazin-2-amine] | 
 | 21 | Nc1cnc(-c2ccc(-c3ccccc3S(=O)(=O)N3CC[C@H](O)C3)cc2F)cn1 [Example 184, (3S)-1-{[4′-(5-Aminopyrazin-2-yl)-3′-fluorobiphenyl-2-yl]sulfonyl}pyrrolidin-3-ol trifluoroacetic acid salt] | 
 | 128 | Nc1cnc(-c2ccc(-c3ccccc3S(=O)(=O)N3CC[C@H](N)C3)cc2F)cn1 [Example 93, (S)-5-(2′-((3-Aminopyrrolidin-1-yl)sulfonyl)-3-fluoro-[1,1′-biphenyl]-4-yl)pyrazin-2-amine] | 
430 |  | COc1cc(C(F)(F)F)ccc1-c1ccc(-c2cnc(N)cn2)c(F)c1 [Example 553, 5-[3-Fluoro-2′-methoxy-4′-(trifluoromethyl)biphenyl-4-yl]pyrazin-2-amine] | 
 | 10 | Nc1cnc(-c2ccc(-c3ccccc3S(=O)(=O)N[C@H]3CCCC[C@@H]3CO)cc2F)cn1 (racemic) [Example 121, racemic (trans)-4′-(5-Aminopyrazin-2-yl)-3′-fluoro-N-[2-(hydroxymethyl)cyclohexyl]biphenyl-2-sulfonamide] | 
241 |  | Nc1cnc(-c2ccc(-c3cccnc3S(=O)(=O)C3CCNC3)cc2F)cn1 (racemic) [Example 803, racemic 5-(2-Fluoro-4-(2-(pyrrolidin-3-ylsulfonyl)pyridin-3-yl)phenyl)pyrazin-2-amine hydrochloride] | 
389 |  | Nc1cnc(-c2ccc(-c3cccnc3OC3CCCCC3)cc2F)cn1 [Example 403, 5-{4-[2-(Cyclohexyloxy)pyridin-3-yl]-2-fluorophenyl}pyrazin-2-amine] | 
 | 240 | Nc1cnc(-c2ccc(-c3ccccc3NS(=O)(=O)N3CCCC3)cc2F)cn1 [Example 181, N-[4′-(5-Aminopyrazin-2-yl)-3′-fluorobiphenyl-2-yl]pyrrolidine-1-sulfonamide] | 
 | 28 | N#CC1CCCN(S(=O)(=O)c2ccccc2-c2ccc(-c3cnc(N)cn3)c(F)c2)C1 (racemic) [Example 63, racemic 1-{[4′-(5-Aminopyrazin-2-yl)-3′-fluorobiphenyl-2-yl]sulfonyl}piperidine-3-carbonitrile] | 
